Data as given in patent US9271962B2 (NORTHEASTERN UNIVERSITY, priority 2008, dated 2016).
Where two headings read alike, the source gives them in different places.

Experiments:
hMGL = target: T1, hMGL (Homo sapiens, UniProt Q99685); experiment: Fluorescent enzyme assay, MGL (AHMMCE hydrolysis); type: biochemical; settings: for inhibition at 1 µM: 1000 nM inhibitor; for inhibition at 0.01 µM: read-out: % Inhibition of Enzyme by inhibitor, MGL, 10 nM
T1 construct: A full-length cDNA clone of the human MGL transcript variant 1; made in house; host or cells: E. coli BL21 (DE3)
T1 sequence (Q99685 2-303 limits assumed): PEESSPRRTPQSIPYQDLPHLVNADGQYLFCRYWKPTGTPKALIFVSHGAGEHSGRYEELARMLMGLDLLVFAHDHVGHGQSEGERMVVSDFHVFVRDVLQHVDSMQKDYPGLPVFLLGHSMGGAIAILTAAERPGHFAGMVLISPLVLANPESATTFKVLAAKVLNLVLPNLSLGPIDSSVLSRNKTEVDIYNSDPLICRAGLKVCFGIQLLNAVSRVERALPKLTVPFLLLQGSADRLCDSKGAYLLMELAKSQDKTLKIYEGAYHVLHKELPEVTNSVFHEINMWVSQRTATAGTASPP
Method: (§1) Some analogs were tested for their FAAH/MGL inhibitory activity, which is expressed as % of inhibition (Tables 2, 3, and 4 below). The percentage of inhibition results from three-point assay (three concentrations of inhibitor are used) and it is less accurate (preliminary screening) than the IC50/Ki values that are determined from eight-point assay (eight different concentrations of inhibitor were used). The percentage of inhibition describes the percentage by which the inhibitor reduces the velocity/rate of AAMCA (arachidonoyl-7-amino-4-methylcoumarin amide) or AHMMCE (arachidonoyl-7-hydroxy-6-methoxy-4-methylcoumarin ester) hydrolysis by FAAH or MGL respectively. The IC50 is the concentration of the inhibitor, which results in 50% inhibition of the velocity/rate of AAMCA (arachidonoyl 7-amino-4-methylcoumarin amide) hydrolysis by FAAH or AHMMCE (Arachidonoyl, 7-hydroxy-6-methoxy-4-methylcoumarin ester) hydrolysis by MGL. The Ki value is the affinity constant and describes the ability of the compounds to inhibit the function of FAAH or MGL. The lower the IC50/Ki values, the higher the affinity of the inhibitor for the enzyme and the higher its inhibitory activity. A detailed description of the methods used to test inhibitory activity of compounds is given below.
A full-length cDNA clone of the human MGL transcript variant 1 (gi: 51242951) was obtained from OriGene Technologies (Rockville, Md.). The coding part of the MGL sequence (except the translation initiation codon ATG) was amplified by a polymerase chain reaction (PCR) using forward […] and reverse […] primers containing PmlI and SacI restriction enzyme recognition sites, respectively. iProof high-fidelity DNA polymerase (Bio-Rad, Hercules, Calif.) was used in the PCR amplification with 33 cycles, each consisting of denaturation at 94° C. for 10 s, annealing at 55° C. for 33 s, and extension at 72° C. for 1 min. The PCR product and pET45b vector were digested with PmlI and SacI restriction enzymes, and the vector was dephosphorylated with CIP followed by in-gel purification using the MinElute Gel Extraction Kit (Qiagen Corp., Valencia, Calif.). The fragment was inserted into the vector directly downstream after the 6 histidine and valine codons, generating the construct pET45His6hMGL for expression of hMGL containing an N-terminal His6-tag. GC10 E. coli cells were used for DNA transformation and plasmid propagation. Mini- and midi-scale plasmid DNA preparations were performed using a GenElute Plasmid Miniprep Kit (Sigma) and PureYield Plasmid Midiprep System (Promega, Madison, Wis.), respectively. In-frame vector-fragment junctions and the coding sequence of the recombinant gene were confirmed by sequencing. The pET45His6hMGL construct was transformed into BL21 (DE3) and Origami (DE3) E. coli expression strains (Novagen, Madison, Wis.).
A single E. coli BL21 (DE3) colony containing the pET45His6hMGL plasmid was inoculated into 12 mL of Luria broth-ampicillin medium and grown overnight with shaking (250 rpm) at 37° C. The next morning, 10 mL of this culture was inoculated into 1 L of fresh Luria broth-ampicillin and allowed to grow until culture turbidity reached an (OD)600 of 0.6-0.8, at which time expression from the T7 promoter was induced by adding isopropyl-β-D-thio-galactopyranoside (1 mM). After 5 h induction, the cells were harvested by centrifugation at 5,000 g for 10 min at 4° C., washed with PBS, and held at −80° C. Five grams (wet-weight) of cells were resuspended in 50 mL lysis buffer (100 mM NaCl; 50 mM Tris, pH 8.0) supplemented with Triton X-100 (0.5%), lysozyme (0.2 mg/mL), and DNase I (25 μg/ml) and disrupted on ice by three, one-min sonication cycles, each consisting of 1-sec sonication bursts at 50 W power separated from each other by a 2-sec interval (Vibra-Cell 500 W, Sonics, Newtown, Conn.). The cell lysate was centrifuged at 10,000 g for 30 min at 4° C. […]

[1] = tested on: rats (KA-induced seizures); experiment: KA-induced seizures in rats, seizure scoring for 4 h; type: in vivo; settings: 5 mg/kg injected immediately after 10 mg/kg KA; 4-h rating period
Method: These compounds were tested in vivo. Seizures were initiated in rats by injection with 10 mg/kg of KA (insult).

ΔTM rFAAH = target: T2, ΔTM rFAAH (Rattus norvegicus, UniProt P97612); experiment: Fluorescent enzyme assay, FAAH (AAMCA hydrolysis); type: biochemical; settings: for inhibition at 1 µM: 1000 nM inhibitor; for inhibition at 1 µM / inhibition at 0.01 µM: screening assay; for inhibition at 0.01 µM: 10 nM inhibitor
T2 construct: 15 ug of ΔTM rFAAH (cell lysate obtained by recombinant procedure); made in house
T2 sequence (P97612 30-579 limits assumed): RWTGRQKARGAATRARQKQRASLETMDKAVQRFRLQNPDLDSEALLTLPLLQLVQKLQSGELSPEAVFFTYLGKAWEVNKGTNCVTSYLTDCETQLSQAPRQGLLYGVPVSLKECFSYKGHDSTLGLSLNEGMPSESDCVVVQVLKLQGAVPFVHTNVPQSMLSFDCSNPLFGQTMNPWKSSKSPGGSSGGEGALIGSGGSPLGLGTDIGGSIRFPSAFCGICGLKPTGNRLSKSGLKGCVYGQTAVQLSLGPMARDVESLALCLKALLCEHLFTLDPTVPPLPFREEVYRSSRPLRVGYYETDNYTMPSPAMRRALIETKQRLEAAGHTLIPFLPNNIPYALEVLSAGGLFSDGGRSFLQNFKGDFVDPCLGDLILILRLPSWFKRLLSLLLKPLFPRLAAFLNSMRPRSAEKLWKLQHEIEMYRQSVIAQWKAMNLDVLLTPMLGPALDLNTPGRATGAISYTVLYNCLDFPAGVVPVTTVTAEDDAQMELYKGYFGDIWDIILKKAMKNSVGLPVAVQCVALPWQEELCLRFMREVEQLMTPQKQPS
Method: as §1
The enzyme (FAAH and MGL) assays were performed in 96 well plates (Coster #3650) in a total volume of 200 uL. Fluorogenic substrate AAMCA (arachidonoyl 7-amino-4-methylcoumarin amide) for FAAH and AHMMCE (arachidonoyl 7-hydroxy-6-methoxy-4-methylcoumarin ester) for MGL were used using BioTek Synergy HT Microplate Reader. Compounds and substrates were dissolved in DMSO provide a 10 mM stock solution and kept as a stock solution at −20° C. until used for assay. Stock solutions were thawed and reconstituted in 50:50 DMSO/assay buffer to a final DMSO concentration per well below 8%. This ensures that the compounds and substrate are in solution during assay. […] Appropriate substrate was added to adjust the final concentration in each well to 20 uM for FAAH (2× Km) and 10 uM for MGL (1×KM). Fluorescence readings were performed at λex=360/λem=460 for 4 h using Kinetic assay protocol at every 20 min (the fluorescent product coumarin produced is quantitated by this procedure). The readings at 3 h for FAAH and 2 h for MGL (linear maximum hydrolysis kinetics of enzyme on substrate) were used to calculate percent inhibition based on controls. Compounds which had more than 50 percent inhibition at 10 uM were selected for dose response study to determine IC50 values. The dose response at 8 concentration points was performed as with the screening assay except that compounds were serially diluted to 8 concentration points which were chosen based on IC50 value, which were calculated from the screening assay results. Assays are run twice in triplicates and Graphpad Prism software is used to plot inhibition data to obtain IC50 values.

[2] = AHMMCE substrate, screening assay
[3] = 10 nM inhibitor, AHMMCE substrate, screening assay
[4] = 100 uM inhibitor, printed in the 1000 nM column

| Compound | inhibition at 1 µM (hMGL; [2]) [%] | inhibition at 1 µM (ΔTM rFAAH; AAMCA substrate) [%] | inhibition at 0.01 µM (hMGL; [3]) [%] | inhibition at 0.01 µM (ΔTM rFAAH; AAMCA substrate) [%] | further results |
| --- | --- | --- | --- | --- | --- |
| C#CCc1nnnn1C(=O)N(C)C [Compound 2, N,N-dimethyl-5-prop-2-yn-1-yl-1H-tetrazole-1-carboxamide] | 35 | 90 |  |  | KA-induced seizure severity [1]: reduce KA-induced seizure severity |
| CN(C)C(=O)n1nnnc1Cc1ccc(Cl)cc1 [Compound 21b] |  |  | 54 | 93 |  |
| CN(C)C(=O)n1nnc(Cc2ccc(Cl)cc2)n1 [Compound 21a] |  |  | 97 | 93 |  |
| CN(C)C(=O)n1ccc(-c2ccccc2)n1 [Compound 30, N,N-dimethyl-3-phenyl-1H-pyrazole-1-carboxamide] | 11 | 23 |  |  |  |
| CN(C)C(=O)n1nnc(Cc2cccc3ccccc23)n1 [Compound 50, N,N-dimethyl-5-(naphthalen-1-ylmethyl)-2H-tetrazole-2-carboxamide] |  |  |  |  | inhibition at 100 µM (hMGL; [4]): 42%; inhibition at 100 µM (ΔTM rFAAH; [4]): 85% |
| CN(C)C(=O)n1nnc(Cc2ccc(I)cc2)n1 [Compound 18a, 5-(4-iodobenzyl)-N,N-dimethyl-2H-tetrazole-2-carboxamide] |  |  | 97 | 92 |  |
| CN(C)C(=O)N1CC(C(C)(C)C)OC1=O (stereo not shown) [Compound 31, 5-tert-butyl-N,N-dimethyl-2-oxooxazolidine-3-carboxamide] | 66 | 63 |  |  |  |
| CN(C)C(=O)N1C=NC2C(N=CN2C(=O)N(C)C)C1=O (stereo not shown) [Compound 62, N^1,N^1,N^9,N^9-tetramethyl-6-oxo-5,6-dihydro-4H-purine-1,9-dicarboxamide] | 83 | 99 |  |  |  |
| CN(C)C(=O)n1nnnc1Cc1ccc(Br)cc1 [Compound 16b] |  |  | 64 | 92 |  |
| CN(CCCCCl)C(=O)n1cnc(-c2ccccc2)c1 [Compound 47, N-(4-chlorobutyl)-N-methyl-4-phenyl-1H-imidazole-1-carboxamide] | 15 | 90 |  | 12 | IC50 (ΔTM rFAAH; eight-point dose response, AAMCA substrate): 78 nM |
| CN(CCCCCl)C(=O)n1cnc(-c2ccccc2)n1 [Compound 53, N-(4-chlorobutyl)-N-methyl-3-phenyl-1H-1,2,4-triazole-1-carboxamide] | 71 | 100 | 13 |  |  |
| CN(C)C(=O)Oc1ccc(Cc2nnnn2C(=O)N(C)C)cc1 [Compound 36b, 4-((1-(dimethylcarbamoyl)-1H-tetrazol-5-yl)methyl)phenyl dimethylcarbamate] |  |  |  | 82 | inhibition at 0.01 µM (hMGL): 98% |
| CN(C)C(=O)n1ncnn1 [Compound 1a, N,N-dimethyl-2H-tetrazole-2-carboxamide] |  |  | 58 | 73 |  |
| CN(C(=O)n1nnnc1Cc1ccc(Cl)cc1Cl)c1ccccc1 [Compound 7b] |  |  | 8 | 89 |  |
| Cc1ccc(Cc2nnn(C(=O)N(C)C)n2)cc1 [Compound 26a, N,N-dimethyl-5-(4-methylbenzyl)-2H-tetrazole-2-carboxamide] |  |  | 96 | 93 |  |
| COc1ccc(Cc2nnnn2C(=O)N(C)C)cc1 [Compound 24b] | 96 | 100 |  |  |  |
| CN(C)C(=O)n1nnnc1Cc1ccc([N+](=O)[O-])cc1 [Compound 22b] |  |  | 22 | 85 |  |
| CN(C)C(=O)n1cnnc1 [Compound 29, N,N-dimethyl-4H-1,2,4-triazole-4-carboxamide] | 79 | 92 |  |  |  |
